Entries after “also recorded” stand apart in the source; their conditions may differ.

As a reminder, the melting point is the temperature of the solid-liquid transition. The term IC50 denotes the point on the concentration scale where inhibition reaches its midpoint. Read a high IC50 as weaker potency.

The test system of data set [1] is PI 3-kinase in 3T3L1 adipocytes. Nature of the data set: Cellular irreversibility assay, insulin-stimulated phosphoSer473 PKB Western blot with and without washout. The format is cell-based. The protocol:
Fully differentiated 3T3L1 adipocytes were starved overnight without serum. The following day, cells were incubated for 60 min with wortmannin (100 nM) as the positive control, LY 294002 (5 μM) as the negative control, the test compounds (1 μM), or DMSO.
To test for irreversibility, cells were then either: 1) rinsed 3 times with warm medium and incubated without an inhibitor for 30 min; or 2) maintained in the same medium containing an inhibitor.
Cells were subsequently stimulated or not with insulin (100 nM, 10 min). Finally, cells were washed twice with ice-cold Phosphate Buffer Saline (PBS) (140 mM NaCl, 3 mM KCl, 6 mM Na2HPO4, 1 mM KH2PO4 (pH 7.4)) and solubilized with a lysis buffer (20 mM Tris-HCl, 138 mM NaCl, 2.7 mM KCl, 1 mM MgCl2, 1 mM CaCl2, 5% (v/v) glycerol, 1% (v/v) Nonidet P-40 (NP40), 5 mM EDTA, 20 μM leupeptin, 18 μM pepstatin, 1 mM AEBSF, 4 μg/mL aprotinin, 2 mM Na3VO4, 20 mM NaF, 1 mM DTT (pH7.4)). Lysates were kept on ice for 20 min and insoluble material was removed by centrifugation at 14,000 g for 10 min. Protein concentration was determined by colorimetric assay (BCA, Pierce).
Proteins were separated by SDS-PAGE and transferred to polyvinylidene difluoride (PVDF) membranes (Pall Corporation, USA). The membranes were incubated for 1 hr in a blocking buffer (20 mM Tris (pH 7.4), 137 mM NaCl, 0.5% (v/v) Tween 20) containing 3% (w/v) BSA (ICP Bio, Auckland, New Zealand) or non-fat milk, and then incubated overnight in the blocking buffer containing specific antibodies (phosphoSer473 PKB and total PKB) Immunoreactive proteins were detected using horseradish peroxidase-linked secondary antibodies (Dako) and enhanced chemiluminescence (ECL) according to the manufacturer's instructions (GE Healthcare, Inc.). Signals were analyzed and quantified using Fuji LAS-3000 phosphorimager and Fuji Image Gauge software.
Overnight-starved 3T3L1 adipocytes cells were incubated for 60 min with compound of Example 4 at 1 μM (lanes 7-12). […]
(A western blot detects proteins with antibodies after separation by electrophoresis.)

For another data set, the system named is NZOV9. Description: Cellular growth inhibition, 3H-thymidine incorporation. Type of data set: cell-based, human. To be noted: five days, 3H-thymidine over last 6 hrs; fifth data column. The protocol: The compounds were evaluated against two early passage human cell lines NZB5 and NZOV9 (Marshall et al., Oncol. Res. 2004, 14, 297). The cells were grown in ITS medium (α-modified minimal essential medium supplemented insulin, transferrin, selenite, and 5% fetal bovine serum) and grown on 96-well tissue culture plates under an atmosphere of 5% O2, 5% CO2, and 90% N2. Individual wells contained 500-1,000 cells (depending on the growth rate) in a volume of 150 μL. Compounds were added at 10-fold concentration steps to a maximum of 20 μM and plates were incubated for five days, with ^3H-thymidine being added over the last 6 hrs. Cells were harvested and incorporated radioactivity measured. Duplicate samples were analyzed for each compound dose with multiple control samples. Data were fitted by a least-squares method to an exponential of the form y=y0+ae^−bx, where y is the radioactivity (corrected for background and normalized to 100% of the control), x is the […], and y0, a, and b are variables, and the IC50 value defined as the compound concentration reducing ^3H-thymidine levels by 50%.
On the technique in general: Uptake of a labelled nucleoside into DNA is a usual measure of proliferation.

The test system of the next data set is human tumour xenografts. To be noted: mouse, in vivo; cited from earlier work.
The test system of a further data set is PI3K isoforms. To be noted: literature; cited from earlier work.

For the molecule `COc1cccc2c1nc(C(F)F)n2-c1nc(N2CCOCC2)nc(N2CCN(C(=O)CCl)CC2)n1` [Example 4, 1-[4-[4-(Chloroacetyl)-1-piperazinyl]-6-(4-morpholinyl)-1,3,5-triazin-2-yl]-2-(difluoromethyl)-4-methoxy-1H-benzimidazole], the melting point lay in the range of 241 to 243 °C. In data set [1] (1 μM, 60 min, compound left on cells, insulin 100 nM, 10 min (lanes 7-9)), the “insulin-stimulated phosphorylation of PKB (phosphoSer473)” value was “attenuated”. Also, the “insulin-stimulated phosphorylation of PKB (phosphoSer473) after washout” value in data set [1] (1 μM, 60 min, rinsed 3 times, 30 min without compound, insulin 100 nM, 10 min (lanes 10-12)) is reported as “attenuated”. Further, the “irreversible binding to PI 3-kinase” value in data set [1] (3T3L1 adipocytes, FIG. 1) was “irreversible binding; also recorded: irreversibly bound PI 3-kinase in the cells”. As for `COc1cccc2c1nc(C(F)F)n2-c1nc(N2CCOCC2)nc(N(C)[C@@H]2CCCN(C(=O)CCl)C2)n1` [Example 39, N-[(3R)-1-(chloroacetyl)piperidinyl]-4-[2-(difluoromethyl)-4-methoxy-1H-benzimidazol-1-yl]-N-methyl-6-(4-morpholinyl)-1,3,5-triazin-2-amine], in the data set on NZOV9, the IC50 is < 100 nM.

Regarding `O=c1cc(N2CCOCC2)oc2c(-c3ccccc3)cccc12` [LY294002], in the data set with human tumour xenografts, the tolerability entry is recorded as “well-tolerated”. In the case of `Cc1cc(C(C)Nc2ccccc2)c2nc(N3CCOCC3)cc(=O)n2c1` (stereo not drawn) [TGX221], the PI3K isoform selectivity result in the data set on PI3K isoforms is “β-selective”. In the case of `FC(F)c1nc2ccccc2n1-c1nc(N2CCOCC2)nc(N2CCOCC2)n1` [ZSTK474], the PI3K isoform selectivity result with PI3K isoforms is on record as “non-selective”.

With “N-[(3S)-1-(chloroacetyl)piperidinyl]-4-[2-(difluoromethyl)-4-methoxy-1H-benzimidazol-1-yl]-N-methyl-6-(4-morpholinyl)-1,3,5-triazin-2-amine [Example 40]”, the IC50 in the data set with NZOV9 was < 100 nM.

Source of the values: patent US20110053907A1, “SUBSTITUTED PYRIMIDINES AND TRIAZINES AND THEIR USE IN CANCER THERAPY” (Auckland UniServices Limited, priority 2008, published 2011).
